The values that follow come from patent EP1068805A1, “Dietetic foods and pharmaceutical preparations inhibiting blood coagulation” (CPC INTERNATIONAL INC., priority 1996, dated 1997).

For test [1], the target named is T1, Υ-glutamylcarboxylase (Rattus norvegicus, UniProt O88496).
T1 sequence (O88496 1-758): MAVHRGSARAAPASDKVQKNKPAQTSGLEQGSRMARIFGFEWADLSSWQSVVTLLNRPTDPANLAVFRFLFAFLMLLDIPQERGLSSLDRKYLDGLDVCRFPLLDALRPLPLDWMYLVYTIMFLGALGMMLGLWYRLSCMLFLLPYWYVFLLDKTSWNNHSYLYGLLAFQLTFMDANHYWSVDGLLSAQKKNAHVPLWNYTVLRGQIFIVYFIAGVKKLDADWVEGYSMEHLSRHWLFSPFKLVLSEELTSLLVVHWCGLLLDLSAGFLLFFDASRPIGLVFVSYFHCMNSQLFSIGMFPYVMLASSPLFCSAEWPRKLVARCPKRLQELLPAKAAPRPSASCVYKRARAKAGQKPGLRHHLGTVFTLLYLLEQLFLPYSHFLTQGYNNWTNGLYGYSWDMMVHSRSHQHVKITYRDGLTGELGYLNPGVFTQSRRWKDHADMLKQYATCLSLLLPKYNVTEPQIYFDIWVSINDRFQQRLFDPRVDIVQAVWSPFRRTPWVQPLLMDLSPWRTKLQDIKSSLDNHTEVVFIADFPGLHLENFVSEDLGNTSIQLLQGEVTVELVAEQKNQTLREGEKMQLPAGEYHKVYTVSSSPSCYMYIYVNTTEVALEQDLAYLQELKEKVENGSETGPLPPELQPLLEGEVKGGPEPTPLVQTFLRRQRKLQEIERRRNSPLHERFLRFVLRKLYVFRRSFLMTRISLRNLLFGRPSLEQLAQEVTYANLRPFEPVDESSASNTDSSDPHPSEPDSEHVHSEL
Briefly: Inhibition of carboxylase activity in salt-washed liver microsomes, rat system. It counts as biochemical, rats of the Lewis strain. The note with it: cofactor KH2; mean of triplicate experiments with S.E.M.; read-out: I-50 (µM) in rat system. The text has this: (§1) Prenylquinones like phylloquinone (vitamin K1), ubiquinone and plastoquinone function as co-enzymes during the conversion of glutamate into γ-carboxyl-glutamate (Gla), which is an essential step in the formation of the blood coagulation factors. The active form of vitamin K is the quinol (KH2), the oxidation of which provides the energy required for Gla formation. In this reaction KH2 is converted into vitamin K epoxide (KO), which is recycled in two steps by the action of an enzyme called KO-reductase.
(§2) In vitro systems were used to test either the γ-glutamylcarboxylase or KO-reductase. Salt-washed microsomes were prepared from the livers of normal cows and from normal and vitamin K-deficient rats of the Lewis strain.
(§3) Inhibition curves were prepared at a wide concentration range of prenylquinones (UQ-9, UQ-10, and PQ-9) using the cofactor vitamin K either in its quinol, its quinone, or in its epoxide form. From these curves the inhibitor concentrations required for 50% inhibition (I-50) were calculated (dotted lines in Fig. 1) for the various carboxylating enzyme systems from the cow as well as from rats. Incubations were performed under standard conditions, the inhibitors were added after solubilization in Triton X- 114. All points in Fig. 1 represent the means of duplicate experiments. 1-50 values were calculated as shown by the dotted lines.

In test [2] the target is T2, Υ-glutamylcarboxylase (Bos taurus, UniProt Q07175).
T2 sequence (Q07175 2-758): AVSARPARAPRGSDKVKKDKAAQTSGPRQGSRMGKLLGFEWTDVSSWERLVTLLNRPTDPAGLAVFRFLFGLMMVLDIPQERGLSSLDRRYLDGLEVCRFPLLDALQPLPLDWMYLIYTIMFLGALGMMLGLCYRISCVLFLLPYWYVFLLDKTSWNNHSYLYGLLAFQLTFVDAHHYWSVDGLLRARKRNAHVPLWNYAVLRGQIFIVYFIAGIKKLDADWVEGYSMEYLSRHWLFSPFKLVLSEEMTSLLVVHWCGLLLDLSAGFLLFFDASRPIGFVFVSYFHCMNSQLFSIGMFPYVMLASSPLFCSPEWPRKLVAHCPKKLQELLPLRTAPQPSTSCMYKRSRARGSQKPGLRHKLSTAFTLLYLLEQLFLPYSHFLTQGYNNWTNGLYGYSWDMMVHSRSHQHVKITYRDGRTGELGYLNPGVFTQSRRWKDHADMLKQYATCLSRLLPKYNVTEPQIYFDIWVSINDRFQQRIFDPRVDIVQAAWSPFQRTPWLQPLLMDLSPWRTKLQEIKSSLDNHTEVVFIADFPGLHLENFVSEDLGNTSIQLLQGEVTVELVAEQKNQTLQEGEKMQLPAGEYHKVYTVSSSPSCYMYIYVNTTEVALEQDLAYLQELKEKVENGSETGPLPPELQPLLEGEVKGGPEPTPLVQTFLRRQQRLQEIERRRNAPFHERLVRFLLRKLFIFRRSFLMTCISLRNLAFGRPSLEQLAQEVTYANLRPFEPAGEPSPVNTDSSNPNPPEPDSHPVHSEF
Briefly: Inhibition of carboxylase activity in salt-washed liver microsomes, bovine system. In kind it is biochemical. The note with it: cofactor KH2; mean of triplicate experiments with S.E.M.; read-out: I-50 (µm) in bovine system.
From the text: as §1, §2, §3

Test [3] has as its target Υ-glutamylcarboxylase. The test is described as above. In kind it is biochemical. The note with it: mean of triplicate experiments with S.E.M., read-out: I-50 (µm) in bovine system.
From the text: as §1, §2, §3

A further test has as its system plasma prothrombin. The experiment in a line: Effect of dietary oils on plasma prothrombin concentration (rat feeding study). In kind it is in vivo, Wistar rats. The note with it: animal data extrapolated to adult reference person of about 60 kg.

Like-named read-outs stand apart in the source and are kept apart here.

In the case of `CC(C)=CCC/C(C)=C/CC/C(C)=C/CC/C(C)=C/CC/C(C)=C/CC/C(C)=C/CC/C(C)=C/CC/C(C)=C/CC/C(C)=C/CC1=CC(=O)C(C)=C(C)C1=O` [PQ-9, plastoquinone], the IC50 at Υ-glutamylcarboxylase [1] was determined as 39 ± 10 µM; at Υ-glutamylcarboxylase [2], 85 ± 11 µM; at Υ-glutamylcarboxylase [3] (cofactor K) it was 59 ± 4 µM; on Υ-glutamylcarboxylase [3] (cofactor KO), 41 ± 7 µM.
For `COC1=C(OC)C(=O)C(CC=C(C)CCC=C(C)CCC=C(C)CCC=C(C)CCC=C(C)CCC=C(C)CCC=C(C)CCC=C(C)CCC=C(C)C)=C(C)C1=O` [UQ-9, ubiquinone-9], the IC50 came out at 25 ± 6 µM at Υ-glutamylcarboxylase [1], 105 ± 14 µM on Υ-glutamylcarboxylase [2], 86 ± 12 µM at Υ-glutamylcarboxylase [3] (cofactor K) and 72 ± 8 µM at Υ-glutamylcarboxylase [3] (cofactor KO). Further, the “effective dose extrapolated to humans” value with plasma prothrombin is on record as “about 40 mg”.
For `COC1=C(OC)C(=O)C(CC=C(C)CCC=C(C)CCC=C(C)CCC=C(C)CCC=C(C)CCC=C(C)CCC=C(C)CCC=C(C)CCC=C(C)CCC=C(C)C)=C(C)C1=O` [UQ-10, ubiquinone-10], the IC50 was found to be 36 ± 7 µM at Υ-glutamylcarboxylase [1], 110 ± 17 µM at Υ-glutamylcarboxylase [2], 76 ± 5 µM on Υ-glutamylcarboxylase [3] (cofactor K) and 91 ± 15 µM at Υ-glutamylcarboxylase [3] (cofactor KO).
